Results from ChEMBL document CHEMBL1128839, “Aminodiol HIV protease inhibitors. 2. 1,1-Dimethyl-2-hydroxyethyl carbamate derivatives with enhanced potency” (Bioorg Med Chem Lett, 1995).
pEC50, pIC50: −log10 of the molar value.

Tests used:
[1] = target: Human immunodeficiency virus type 1 protease (Human immunodeficiency virus 1, UniProt Q72874); assay: Inhibition of HIV protease cleavage of V-S-Q-N-(b-naphthylalanine)-P-I-V
CCRF-CEM [2] = assay: Cytotoxicity against CEM cells; format: functional, Homo sapiens
[3] = Half-life period by analytical HPLC at pH 7.2; format: ADME
CCRF-CEM [4] = assay: Compound was evaluated for its ability to inhibit the replication of HIV-1 virus by 50% in cell culture using XTT endpoint; format: functional; conditions: Homo sapiens, read-out: ED50 (the source's name)
CCRF-CEM [5] = assay: Compound was evaluated for its ability to inhibit the replication of HIV-2 virus (strain CBL-20) by 50% in cell culture using XTT endpoint; format: functional; conditions: Homo sapiens, read-out: ED50 (the source's name)

Row | SMILES | pIC50 [1] | Cytotoxicity (CCRF-CEM [2]) | half-life [3] | pEC50 (CCRF-CEM [4]) | pEC50 (CCRF-CEM [5])
1 | CC(C)(C)OC(=O)N[C@@H](Cc1ccccc1)[C@H](O)CNC[C@@H](O)[C@H](Cc1ccccc1)NC(=O)OC(C)(CO)CO | 6.70 | >10 µM | 18 h | – | –
2 | CC(C)(C)OC(=O)N[C@@H](Cc1ccccc1)[C@H](O)CNC[C@@H](O)[C@H](Cc1ccccc1)NC(=O)OC(C)(C)CCCO | 5.96 | >=10000 nM | – | 6.19 | –
3 | CC(C)(C)OC(=O)N[C@@H](Cc1ccccc1)[C@H](O)CNC[C@@H](O)[C@H](Cc1ccccc1)NC(=O)OC(C)(C)CO | 7.46 | >=10000 nM | – | 7.42 | 6.99
4 | CC(C)(CO)OC(=O)N[C@@H](Cc1ccccc1)[C@H](O)CNC[C@@H](O)[C@H](Cc1ccccc1)NC(=O)OC(C)(C)CO | 7.80 | >10 µM | – | 6.07 | –
5 | COCC(C)(C)OC(=O)N[C@@H](Cc1ccccc1)[C@H](O)CNC[C@@H](O)[C@H](Cc1ccccc1)NC(=O)OC(C)(C)C | 6.38 | >=10000 nM | – | 5.99 | –
6 | C[C@H](O)C(C)(C)OC(=O)N[C@@H](Cc1ccccc1)[C@H](O)CNC[C@@H](O)[C@H](Cc1ccccc1)NC(=O)OC(C)(C)C | 6.98 | >10 µM | – | 7.46 | –
7 | CC(C)(C)OC(=O)N[C@@H](Cc1ccccc1)[C@H](O)CNC[C@@H](O)[C@H](Cc1ccccc1)NC(=O)OC(C)(C)CCO | 6.70 | >=10000 nM | – | 6.76 | –
8 | CC(C)(C)OC(=O)N[C@@H](Cc1ccccc1)[C@H](O)CNC[C@@H](O)[C@H](Cc1ccccc1)NC(=O)OCCO | 6.64 | >10 µM | – | 6.55 | –
9 | CC(C)(C)OC(=O)N[C@@H](Cc1ccccc1)[C@H](O)CNC[C@@H](O)[C@H](Cc1ccccc1)NC(=O)OC(C)(C)CNC=O | 5.82 | >=10000 nM | – | 6.21 | –
10 | CC(C)(C)OC(=O)N[C@@H](Cc1ccccc1)[C@H](O)CNC[C@@H](O)[C@H](Cc1ccccc1)NC(=O)OC1(CO)CCC1 | 7.00 | >10 µM | – | 6.81 | –
11 | CC(C)(C)OC(=O)N[C@@H](Cc1ccccc1)[C@H](O)CNC[C@@H](O)[C@H](Cc1ccccc1)NC(=O)OC(C)(C)C | – | >=10000 nM | – | 7.10 | –
12 | CC(C)(C)OC(=O)N[C@@H](Cc1ccccc1)[C@H](O)CNC[C@@H](O)[C@H](Cc1ccccc1)NC(=O)OC(C)(C)CN | < 5.00 | – | – | – | –
13 | C[C@@H](O)C(C)(C)OC(=O)N[C@@H](Cc1ccccc1)[C@H](O)CNC[C@@H](O)[C@H](Cc1ccccc1)NC(=O)OC(C)(C)C | 6.80 | >10 µM | – | 6.49 | –
14 | CC(C)(C)OC(=O)N[C@@H](Cc1ccccc1)[C@H](O)CNC[C@@H](O)[C@@H](N)Cc1ccccc1 | < 5.00 | – | – | – | –
